# Reference: patent US5968949A, “Substituted hydroisoquinoline derivatives and their use as pharmaceuticals” (SmithKline Beecham S.p.A., priority 1995, dated 1999)
# System: delta receptor
# Experiment: Radioligand binding assay, [3H]-DADLE in mouse brain membranes
# Conditions: stated in words after the delta affinity range
# Method: The activity of the compounds of the present invention as selective delta ligands is determined in radioligand binding assays as described below.
# Mouse brain membranes were prepared as described by Kosterlitz (Br. J. Pharmacol., 1981, 73, 939.). The binding of the preferential delta ligand [^3 H]-[D-Ala^2,D-Leu^5 ]-enkephalin (DADLE) was evaluated at its KD concentration (1.3 nM) in presence of 40 nM of the unlabelled mu ligand [D-Ala^2, MePhe^4, Gly-ol5]-enkephalin (DAMGO). The binding of the mu ligand [^3 H]-DAMGO (Eur. J. Pharmacol., 1989, 166, 213) and of the kappa ligand [^3 H]-U69593 (Excerpta Medica, 1990, 211) were carried out at 0.5 nM. The non-specific binding was determined in presence of naloxone (10 μM) for all tritiated ligands. Binding data were expressed as percentage of inhibition and fitted the following equation: f(x)=100.X/(IC50 +X) where X are cold drug concentration values. The IC50 obtained were used to calculate the inhibitory constants (Ki) accordingly to the Cheng and Prusoff relation (Biochem. Pharmacol., 1973, 22, 3099).
structure (smiles),measurement,value
"CN1CC[C@]2(c3cccc(O)c3)CC(c3ccccc3)=CC[C@H]2C1 (racemic) [Example 3, (±)-trans-4a-(3-Hydroxyphenyl)-2-methyl-6-phenyl-1,2,3,4,4a,5,8,8a-octahydroisoquinoline]",potency rank among the exemplified compounds,most potent of the exemplified compounds
